In patent US20230174497A1, “RHEIN AMIDE DERIVATIVE AND PREPARATION METHOD AND USE THEREOF, AND INHIBITOR OF HEPATOCELLULAR CARCINOMA (HCC) WITH SPECIFIC RECQL4 EXPRESSION” (Shandong First Medical University & Shandong Academy of …, priority 2021, published 2023):

Assays:
HCC cells SNU398 = assay: CCK-8 cell proliferation assay, SNU398 cells; assay type: cell-based; conditions: for IC50: Homo sapiens, SNU-398, SNU398 cells (high RECQL4 expression), 48 h culture, CCK-8, OD 450 nm, Mean ± S.E.M; for IC50 on HCC cells SNU398 compared with IC50 on hepatocytes LO2 (selectivity in words): SNU398 versus LO2, CCK-8, 48 h
Description: (§1) The effects of the above-prepared rhein amide derivatives on cell proliferation were detected by a CCK-8 kit.
(§2) The CCK-8 kit can evaluate a proliferation activity of cells by detecting an absorbance at a 450 nm wavelength. SNU398 and LO2 cells were digested to obtain a cell suspension, the cell suspension was diluted with a medium to a density of about 5×10^3 cells/well, 100 µl of cell liquid was added to each well, and a blank group and a negative control group were set up. About 1.0000 mg of the derivative was added in a 0.5 mL EP tube, mixed with dimethyl sulfoxide (DMSO) to prepare a 5×10^-2 M stock solution, and stored at -20° C.
(§3) The stock solutions of 21 compounds prepared in the examples and comparative examples were diluted to final concentrations of 100 µmol/L, 20 µmol/L, 4 µmol/L, 0.8 µmol/L, and 0.16 µmol/L separately using a concentration gradient stepwise dilution method. An original medium in a 96-well plate was discarded by aspiration, 100 µl of the dilutions of the 17 compounds were added to the 96-well plate, and three parallel wells were set up. The dilutions were culture in a cell culture incubator for 48 h. […] A stronger inhibitory ability led to a lower IC50 value, and results were listed in Table 1; statistical analysis and drawing of experimental data was conducted using Graphpad-prism 6.0 software, and a mean ± standard deviation was expressed as (Mean ± S.E.M).

hepatocytes LO2 = assay: CCK-8 cell proliferation assay, LO2 cells; assay type: cell-based; conditions: Hepatocyte, 48 h culture, CCK-8, OD 450 nm, Mean ± S.E.M
Description: as §1, §2, §3

Row | SMILES | melting point [°C] | IC50 (HCC cells SNU398) [µM] | IC50 (hepatocytes LO2) [µM] | IC50 on HCC cells SNU398 compared with IC50 on hepatocytes LO2 (selectivity in words) (HCC cells SNU398)
1 | COC(=O)C(CC(C)C)NC(=O)c1cc(O)c2c(c1)C(=O)c1cccc(O)c1C2=O (centres unmarked) [Comparative Example 1, methyl (4,5-dihydroxy-9,10-dioxo-9,10-dihydroanthracene-2-carbonyl)leucine] | 175.1 to 176.3 | 25.9 ± 6.94 | 0.81 ± 0.16 | 
2 | CCOC(=O)C(NC(=O)c1cc(O)c2c(c1)C(=O)c1cccc(O)c1C2=O)C(C)CC (centres unmarked) [Comparative Example 4] | 167 to 167.5 | 47.1 ± 11.5 | 18.2 ± 1.56 | 
3 | CCOC(=O)C(CC(C)C)NC(=O)c1cc(O)c2c(c1)C(=O)c1cccc(O)c1C2=O (centres unmarked) [Comparative Example 3, ethyl(4,5-dihydroxy-9,10-dioxo-9,10-dihydroanthracene-2-carbonyl)leucinate] | 167.9 to 170 | 188 ± 94.4 | 57.1 ± 3.25 | 
4 | CCOC(=O)C(Cc1ccccc1)NC(=O)c1cc(O)c2c(c1)C(=O)c1cccc(O)c1C2=O (centres unmarked) [Comparative Example 5, ethyl (4,5-dihydroxy-9,10-dioxy-9,10-dihydroanthracene-2-carbonyl) phenylalaninate] | 171 to 172.7 | 166 ± 7.62 | 228 ± 7.25 | 
5 | CCOC(=O)C(CCSC)NC(=O)c1cc(O)c2c(c1)C(=O)c1cccc(O)c1C2=O (centres unmarked) [Comparative Example 6, ethyl(4,5-dihydroxy-9,10-dioxo-9,10-dihydroanthracene-2-carbonyl)methioninate] | 177.2 to 178 | 19.8 ± 1.23 | 7.77 ± 0.45 | 
6 | CCC(C)C(NC(=O)c1cc(O)c2c(c1)C(=O)c1cccc(O)c1C2=O)C(=O)OC (centres unmarked) [Comparative Example 2, methyl 2-(4,5-dihydroxy-9,10-dioxy-9,10-dihydroanthracene-2-carboxamide)-3-methylvalerate] | 179.7 to 182.3 | 470 ± 84.2 | 80.4 ± 2.36 | 
7 | CC(C)CNC(=O)c1cc(O)c2c(c1)C(=O)c1cccc(O)c1C2=O [Comparative Example 8, 4,5-dihydroxy-N-isobutyl-9,10-dioxy-9,10-dihydroanthracene-2-carboxamide] |  |  | 118 ± 12.3 | 
8 | CCOC(=O)C(NC(=O)c1cc(O)c2c(c1)C(=O)c1cccc(O)c1C2=O)C(C)C (centres unmarked) [Comparative Example 7, ethyl(4,5-dihydroxy-9,10-dioxo-9,10-dihydroanthracene-2-carbonyl)valerate] | 202.1 to 202.7 | 161 ± 4.53 | 13.7 ± 0.89 | 

The next lines start with results.

Row | melting point [°C] | IC50 (HCC cells SNU398) [µM] | SMILES | IC50 (hepatocytes LO2) [µM] | IC50 on HCC cells SNU398 compared with IC50 on hepatocytes LO2 (selectivity in words) (HCC cells SNU398)
9 | 270.1 to 272.2 | 222 ± 18.7 | CC(=O)c1ccc(N2CCN(C(=O)c3cc(O)c4c(c3)C(=O)c3cccc(O)c3C4=O)CC2)cc1 [Comparative Example 10, 3-(4-(4-acetylphenyl)piperazin-1-carbonyl)-1,8-dihydroxyanthracene-9,10-dione] | 104 ± 9.96 | 
10 | 222.2 to 222.8 | 19 ± 1.96 | CCOC(=O)N1CCN(C(=O)c2cc(O)c3c(c2)C(=O)c2cccc(O)c2C3=O)CC1 [Example 7] | 26.3 ± 15.8 | 
11 | 236.3 to 237.9 | 0.46 ± 0.08 | COC(=O)C(C)NC(=O)c1cc(O)c2c(c1)C(=O)c1cccc(O)c1C2=O (centres unmarked) [Example 1, methyl(4,5-dihydroxy-9,10-dioxy-9,10-dihydroanthracene-2-carbonyl) alaninate] | 5.41 | much smaller than the IC50 on hepatocytes LO2
12 | 196.7 to 197.2 | 8.81 ± 0.78 | CCOC(=O)C(CC)NC(=O)c1cc(O)c2c(c1)C(=O)c1cccc(O)c1C2=O (centres unmarked) [Example 2, ethyl 2-(4,5-dihydroxy-9,10-dioxy-9,10-dihydroanthracene-2-carboxamide)butanoate] | 104 ± 9.36 | much smaller than the IC50 on hepatocytes LO2
13 | 264.1 to 265 | 116 ± 5.25 | CCCNC(=O)c1cc(O)c2c(c1)C(=O)c1cccc(O)c1C2=O [Example 5, 4,5-dihydroxy-9,10-dioxo-n-propyl-9,10-dihydroanthracene-2-carboxamide] | 228 ± 10.8 | 
14 | 202 to 202.3 | 66.8 ± 2.21 | CCOC(=O)CCC(NC(=O)c1cc(O)c2c(c1)C(=O)c1cccc(O)c1C2=O)C(=O)OCC (centres unmarked) [Example 3, diethyl(4,5-dihydroxy-9,10-dioxo-9,10-dihydroanthracene-2-carbonyl) glutamate] | 114 ± 4.11 | 
15 | 215.2 to 215.9 | 5.85 ± 0.49 | CCCCNC(=O)c1cc(O)c2c(c1)C(=O)c1cccc(O)c1C2=O [Example 6, N-butyl-4,5-dihydroxy-9,10-dioxy-9,10-dihydroanthracene-2-carboxamide] | 113 ± 8.56 | much smaller than the IC50 on hepatocytes LO2
16 | 244.5 to 249.4 | 111 ± 12.5 | COc1ccc(CNC(=O)c2cc(O)c3c(c2)C(=O)c2cccc(O)c2C3=O)cc1 [Comparative Example 9, 4,5-dihydroxy-N-(4-methoxybenzyl)-9,10-dioxy-9,10-dihydroanthracene-2-carboxamide] | 106 ± 9.72 | 
17 | 174.7 to 175.2 | 27.9 ± 3.45 | CCOC(=O)CC(NC(=O)c1cc(O)c2c(c1)C(=O)c1cccc(O)c1C2=O)C(=O)OCC (centres unmarked) [Example 4, diethyl(4,5-dihydroxy-9,10-dioxo-9,10-dihydroanthracene-2-carbonyl)aspartate] | 117 | much smaller than the IC50 on hepatocytes LO2
